Read-outs that look alike come from different tables or passages of the source.
What was measured:
P. aeruginosa PqsA = P. aeruginosa PqsA (Pseudomonas aeruginosa, UniProt Q9I4X3); assay: PqsA inhibition, spectrophotometric assay with recombinant PqsA (anthranilyl-CoA formation at 365 nm); type: biochemical; settings: uncompetitive with respect to anthranilate and CoA
Protocol: PqsA inhibitors were evaluated using a quantitative spectrophotometric assay with recombinant PqsA, detecting formation of anthranilyl-CoA at 365 nm. See, e.g., Coleman et al. (2008) J. Bacteriol. 190, 1247. […] See, e.g., Morrison et al. Biochim. Biophys. Acta, Enzymol. 185, 269-286; Williams et al. (1979) Methods Enzymol. 63, 437. […] See, e.g., Qiao et al. (2007) J. Am. Chem. Soc. 129, 6350.
Reactions were performed at 37° C. in a 0.5 mL volume in a Varian Cary 100 UV-visible spectrophotometer with Cary WinUV software. Reaction mixtures contained 100 mM HEPES, pH 8.0, 0.2 mM dithiothreitol, 2 mM MgCl2, ˜3.3 μg PqsA protein (˜60 nM final), and depending on which substrate varied, 1 mM ATP (disodium salt), 0.5 mM coenzyme A (tri-lithium salt), 0.5 mM sodium anthranilate, and inhibitor (usually as a DMSO stock solution). Reactions were blanked and preincubated with all components except anthranilate at 37° C. for 1 min, then initiated by addition of anthranilate. Formation of anthraniloyl-CoA was monitored ance at 365 nm (ε=5.5 mM−1 cm−1) for 1 min. Data were analyzed using GraphPad Prism 6 software.

[1] = test system: HHQ and PQS quinolone production in P. aeruginosa strain PA14; assay: Inhibition of HHQ and PQS quinolone production in P. aeruginosa strain PA14 (LC-MS/MS); type: cell-based, Pseudomonas aeruginosa; settings: for inhibition at 1500 µM / inhibition at 1000 µM: Pseudomonas aeruginosa
Protocol: The production of PQS and HHQ by strain PA14 was performed in triplicate in 14-mL round bottom falcon tubes containing 3-mL cultures in LB medium. Tubes were incubated at 37° C. in an orbital shaker at 225 rpm. Cultures were inoculated with 15-hour culture in LB in order to obtain a starting OD600=0.05, with or without inhibitors added. For PQS and HHQ analysis, a 20 μl aliquot was taken at time points as indicated. Each sample was diluted with 180 μL of methanol containing the internal standard (100 μM of d^4-PQS or d^4-HHQ) and 2% acetic acid. The solution was then vertexed and centrifuged at 13,000 g for 5 minutes, and the supernatant was transferred to a 96-well plates for LC-MS/MS analysis. Bacterial growth was measured by recording OD600 at 20 h to provide the data in FIG. 7A.
Liquid chromatography tandem mass spectrometry (LC-MS/MS) was carried out on an Agilent Technologies 6410 triple quad LC-MS/MS system with autosampler in electrospray ionization (ESI) mode, with an Agilent Zorbax Eclipse XDB-C18 reverse phase column (50×4.6 mm, 5 μm) using a flow rate of 0.5 mL/minute and an isocratic mobile phase of 60% CH3CN in 0.1% aqueous formic acid over 5 minutes. Positive electrospray in MRM mode was employed to quantify PQS and HHQ, using the ion transitions HHQ 244 to 159, d^4-HHQ 248 to 163, PQS 260 to 175, and d^4-PQS 264 to 179; shown in Table E3.
PqsA inhibitors 1-5 were evaluated for their ability to inhibit HHQ and PQS quinolone production in P. aeruginosa strain PA14 (FIG. 6). HHQ and PQS concentrations were determined by LC-MS/MS quantitation relative to deuterated internal standards. 6-Fluoroanthranilate (6FABA), a substrate analogue reported previously to inhibit quinolone production at millimolar concentrations, was used as a positive control. Compounds were initially tested at 1.5 mM concentration, and HHQ and PQS were quantified at 8 and 20 hours, respectively. These time points were selected based on an initial time course study of quinolone production in the absence of inhibitors, with HHQ or PQS production peaking at these respective time points. […] This could be due to differences in cell penetration, stability, and/or target specificity. Finally, because inhibitors of the quinolone quorum sensing pathway should not impact bacterial growth, we confirmed that none of the six inhibitors above inhibited growth over 20 h (FIG. 7A). Encouraged by the ability of anthranilyl-AMS (1) and anthranilyl-AMSN (2) to inhibit HHQ and PQS quinolone production, the activity of these two inhibitors and 6FABA were investigated in greater detail. In untreated controls, HHQ and PQS production peaked at 8 and 20 hours, respectively. Previously reported time course studies have similarly shown that HHQ levels peak at 6-8 hours while PQS levels continue to rise. See, e.g., Deziel et al. (2004) Proc. Natl. Acad. Sci. U.S.A 101, 1339; Kesarwani et al. (2011) PLoS Pathog. 7, e1002192. All three inhibitors were able to decrease quinolone production in a dose- and time-dependent manner (FIG. 2A). […] Such a perturbation might still be sufficient to impact P. aeruginosa virulence in vivo. […] See, e.g., Lesic et al. (2007) PLoS Pathog. 3, e126.

MRC5 cells = assay: Cell health and viability image-based study (fluorescence microscopy), MRC5; settings: for IC50: Homo sapiens, MRC5, imaging; for toxicity in words, imaging, MRC5: up to 1000 μM
Protocol: The multiparametric assay developed surveys a number of elements of cell health simultaneously. Using a combination of 2 dyes, we are able to simultaneously measure nuclear morphology, membrane integrity and cell proliferation. All measurements are made on live cells after an incubation time of 24H. Hoechst 33342 is used to measure total number of cells, nuclear morphology and cell proliferation. The nuclear impermeable dye Syto17 is used to assess the nuclear membrane integrity by measuring the nuclear translocation of the dye when the membrane gets porous after incubation with a toxic compound. Cells were plated at a density of 1500 cells/25 al in well in a 384 wells plate the day before incubation with the drugs. The following day, 0.1 al of the source plate are added to the assay plate. Then, 25 al of a fluorophores mixture containing Hoechst 33342, Syto17 diluted in EMEM was added to each well. Plates are read after 48 h incubation in the ImageXpress instrument (Molecular Devices) using the appropriate filters. Images are analyzed using an application of MetaXpress software (Molecular Devices) and data are presented using Prism software. Low Signal Control (C23): 5 μM Staurosporine; High Signal Control (C24): DMSO.

[2] = PA14, 8 h, read-out: inhibition of HHQ production
[3] = PA14, 20 h, read-out: inhibition of PQS production
[4] = PA14, read-out: inhibition of HHQ production
[5] = PA14, read-out: inhibition of PQS production
[6] = Hoechst 33342, read-out: Cell Count IC50, MRC5
[7] = Syto17, read-out: Nuclear membrane integrity IC50, MRC5

P. aeruginosa PqsA, sequence (Q9I4X3 whole entry): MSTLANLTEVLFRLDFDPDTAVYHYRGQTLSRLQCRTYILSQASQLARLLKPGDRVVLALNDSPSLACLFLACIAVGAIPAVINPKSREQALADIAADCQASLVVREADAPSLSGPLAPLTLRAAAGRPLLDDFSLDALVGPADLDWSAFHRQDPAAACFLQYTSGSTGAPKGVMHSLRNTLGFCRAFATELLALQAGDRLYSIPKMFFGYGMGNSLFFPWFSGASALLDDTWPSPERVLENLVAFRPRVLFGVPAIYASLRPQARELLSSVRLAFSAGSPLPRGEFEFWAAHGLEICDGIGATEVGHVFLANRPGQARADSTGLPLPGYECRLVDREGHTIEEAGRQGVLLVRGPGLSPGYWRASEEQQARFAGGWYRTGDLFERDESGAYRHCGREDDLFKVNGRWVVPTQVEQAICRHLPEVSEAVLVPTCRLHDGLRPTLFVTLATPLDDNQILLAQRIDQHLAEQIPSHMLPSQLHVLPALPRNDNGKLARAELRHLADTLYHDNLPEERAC

For `Nc1ccccc1C(=O)NS(=O)(=O)OC[C@H]1O[C@@H](n2cnc3c(N)ncnc32)[C@H](O)[C@@H]1O` [anthranilyl-AMS, Anthranilyl-AMS], the “mode of PqsA inhibition” value (P. aeruginosa PqsA) was “competitive inhibitors with respect to ATP”, the “dose- and time-dependent decrease of quinolone production, in words” value ([1]; FIG. 2A) was “same trend of inhibition, albeit again with lower potency” and the inhibition at 1500 µM [1, 2] was 67%. It also gave an inhibition at 1500 µM [1, 3] of 77%, an inhibition at 1000 µM [1, 4] of 47% and an inhibition at 1000 µM [1, 5] of 40%. For the same compound, the IC50 (MRC5 cells; [6]) was 21.5 µM, the IC50 (MRC5 cells; [7]) was 25.5 µM and the “toxicity in words, imaging, MRC5” value (MRC5 cells) was “significant toxicity in the tested range”.

In the case of `Nc1ccccc1C(=O)NS(=O)(=O)NC[C@H]1O[C@@H](n2cnc3c(N)ncnc32)[C@H](O)[C@@H]1O` [anthranilyl-AMSN, Anthranilyl-AMSN], the “mode of PqsA inhibition” value (P. aeruginosa PqsA) is reported as “competitive inhibitors with respect to ATP”, the inhibition at 1500 µM [1, 2] is reported as 90% and the inhibition at 1500 µM [1, 3] is reported as 92%. It also gave an inhibition at 1000 µM [1, 4] of 84%, an inhibition at 1000 µM [1, 5] of 84% and an IC50 (MRC5 cells; [6]) of 58.8 µM. For the same compound, the IC50 (MRC5 cells; [7]) was 74.3 µM and the “toxicity in words, imaging, MRC5” value (MRC5 cells) was “significant toxicity in the tested range”.
